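How tested: cells in 96-well plates exposed to compound for 48 hours at five concentrations. TGI: concentration producing complete growth inhibition.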
Columns and labels:
Assay in all cases: growth of human tumour cells (NCI), 48 h
CCRF-CEM leukemia = system: CCRF-CEM leukemia
OVCAR-4 ovarian = system: OVCAR-4 ovarian
MDA-MB-231 breast = system: MDA-MB-231 breast
SK-OV-3 ovarian = system: SK-OV-3 ovarian
HL-60(TB) leukemia = system: HL-60(TB) leukemia
NCI-H522 lung = system: NCI-H522 lung
SN12C renal = system: SN12C renal
NCI-H460 lung = system: NCI-H460 lung
MDA-N = system: MDA-N
IGROV1 ovarian = system: IGROV1 ovarian
HS 578T breast = system: HS 578T breast
UACC-62 melanoma = system: UACC-62 melanoma
MALME-3M melanoma = system: MALME-3M melanoma
A498 renal = system: A498 renal
UACC-257 melanoma = system: UACC-257 melanoma
HCT-15 colon = system: HCT-15 colon
SR leukemia = system: SR leukemia
SK-MEL-28 melanoma = system: SK-MEL-28 melanoma
SK-MEL-5 melanoma = system: SK-MEL-5 melanoma
HT29 colon = system: HT29 colon
K-562 leukemia = system: K-562 leukemia
EKVX NSCLC = system: EKVX NSCLC
LOX IMVI melanoma = system: LOX IMVI melanoma
SF-268 CNS = system: SF-268 CNS
RPMI-8226 leukemia = system: RPMI-8226 leukemia
MOLT-4 leukemia = system: MOLT-4 leukemia
SNB-19 CNS = system: SNB-19 CNS
OVCAR-5 ovarian = system: OVCAR-5 ovarian
HOP-62 NSCLC = system: HOP-62 NSCLC
HCC-2998 colon = system: HCC-2998 colon
T-47D breast = system: T-47D breast
BT-549 breast = system: BT-549 breast
TK-10 renal = system: TK-10 renal
RXF 393 renal = system: RXF 393 renal
SW-620 colon = system: SW-620 colon
OVCAR-3 ovarian = system: OVCAR-3 ovarian
SF-539 CNS = system: SF-539 CNS
NCI-H23 lung = system: NCI-H23 lung
OVCAR-8 ovarian = system: OVCAR-8 ovarian
A549 NSCLC = system: A549 NSCLC
NCI-H226 lung = system: NCI-H226 lung
SF-295 CNS = system: SF-295 CNS
M14 melanoma = system: M14 melanoma
UO-31 renal = system: UO-31 renal
MCF7 breast = system: MCF7 breast
ACHN renal = system: ACHN renal
COLO 205 colon = system: COLO 205 colon
U251 CNS = system: U251 CNS
DU-145 prostate = system: DU-145 prostate
KM12 colon = system: KM12 colon
HOP-92 NSCLC = system: HOP-92 NSCLC
SK-MEL-2 melanoma = system: SK-MEL-2 melanoma
MDA-MB-435 = system: MDA-MB-435
SNB-75 CNS = system: SNB-75 CNS
PC-3 prostate = system: PC-3 prostate
HCT-116 colon = system: HCT-116 colon
NCI/ADR-RES ovarian = system: NCI/ADR-RES ovarian
CAKI-1 renal = system: CAKI-1 renal
786-0 renal = system: 786-0 renal
LXFL 529 NSCLC = system: LXFL 529 NSCLC
SNB-78 CNS = system: SNB-78 CNS
KM20L2 colon = system: KM20L2 colon
DLD-1 colon = system: DLD-1 colon
DMS 114 small cell lung = system: DMS 114 small cell lung
M19-MEL melanoma = system: M19-MEL melanoma

## CCCCCCCCCCCCCCC(O)C[N+](C)(CCO)CCO (stereo not given)
CCRF-CEM leukemia
  TGI: 9.82 µM
OVCAR-4 ovarian
  TGI: 17 µM
MDA-MB-231 breast
  TGI: 3.76 µM
SK-OV-3 ovarian
  TGI: 30.7 µM
HL-60(TB) leukemia
  TGI: 2.71 µM
NCI-H522 lung
  TGI: 5.03 µM
SN12C renal
  TGI: 21.5 µM
NCI-H460 lung
  TGI: 6.56 µM
MDA-N
  TGI: 22.8 µM
IGROV1 ovarian
  TGI: 3.14 µM
HS 578T breast
  TGI: 7.87 µM
UACC-62 melanoma
  TGI: 11.1 µM
MALME-3M melanoma
  TGI: 7.54 µM
A498 renal
  TGI: 22.6 µM
UACC-257 melanoma
  TGI: 26.7 µM
HCT-15 colon
  TGI: 22 µM
SR leukemia
  TGI: 10.1 µM
SK-MEL-28 melanoma
  TGI: 22.4 µM
SK-MEL-5 melanoma
  TGI: 16.9 µM
HT29 colon
  TGI: 12.1 µM
K-562 leukemia
  TGI: > 38.1 µM
EKVX NSCLC
  TGI: 42.6 µM
LOX IMVI melanoma
  TGI: 4.66 µM
SF-268 CNS
  TGI: 5.16 µM
RPMI-8226 leukemia
  TGI: 5.52 µM
MOLT-4 leukemia
  TGI: 9.13 µM
SNB-19 CNS
  TGI: 3.39 µM
OVCAR-5 ovarian
  TGI: 7.92 µM
HOP-62 NSCLC
  TGI: 10.3 µM
HCC-2998 colon
  TGI: 3.51 µM
T-47D breast
  TGI: 30.6 µM
BT-549 breast
  TGI: 10.8 µM
TK-10 renal
  TGI: 4.16 µM
RXF 393 renal
  TGI: 4.36 µM
SW-620 colon
  TGI: 23.7 µM
OVCAR-3 ovarian
  TGI: 12.1 µM
SF-539 CNS
  TGI: 7.21 µM
NCI-H23 lung
  TGI: 20.7 µM
OVCAR-8 ovarian
  TGI: 18.8 µM
A549 NSCLC
  TGI: 34.3 µM
NCI-H226 lung
  TGI: 5.63 µM
SF-295 CNS
  TGI: 9.96 µM
M14 melanoma
  TGI: 3.66 µM
UO-31 renal
  TGI: 17 µM
MCF7 breast
  TGI: 36.5 µM
ACHN renal
  TGI: 21.7 µM
COLO 205 colon
  TGI: 3.19 µM
U251 CNS
  TGI: 2.89 µM
DU-145 prostate
  TGI: 23.6 µM
KM12 colon
  TGI: 4.23 µM
HOP-92 NSCLC
  TGI: 5.76 µM
SK-MEL-2 melanoma
  TGI: 27.5 µM
MDA-MB-435
  TGI: 21.3 µM
SNB-75 CNS
  TGI: 2.85 µM
PC-3 prostate
  TGI: 4.31 µM
HCT-116 colon
  TGI: 23.8 µM
NCI/ADR-RES ovarian
  TGI: 49 µM
CAKI-1 renal
  TGI: 9.59 µM
786-0 renal
  TGI: 4.78 µM

## CN(c1ccc(C(=O)c2ccc(N(C)S(C)(=O)=O)cc2)cc1)S(C)(=O)=O
CCRF-CEM leukemia
  TGI: > 100 µM
OVCAR-4 ovarian
  TGI: > 100 µM
SK-OV-3 ovarian
  TGI: > 100 µM
HL-60(TB) leukemia
  TGI: > 100 µM
NCI-H522 lung
  TGI: > 100 µM
SN12C renal
  TGI: > 100 µM
NCI-H460 lung
  TGI: > 100 µM
LXFL 529 NSCLC
  TGI: > 100 µM
UACC-62 melanoma
  TGI: > 100 µM
MALME-3M melanoma
  TGI: > 100 µM
A498 renal
  TGI: > 100 µM
UACC-257 melanoma
  TGI: > 100 µM
SR leukemia
  TGI: > 100 µM
SK-MEL-28 melanoma
  TGI: > 100 µM
SK-MEL-5 melanoma
  TGI: 78.4 µM
HT29 colon
  TGI: > 100 µM
K-562 leukemia
  TGI: > 100 µM
EKVX NSCLC
  TGI: > 100 µM
SF-268 CNS
  TGI: > 100 µM
RPMI-8226 leukemia
  TGI: > 100 µM
MOLT-4 leukemia
  TGI: > 100 µM
SNB-19 CNS
  TGI: > 100 µM
OVCAR-5 ovarian
  TGI: > 100 µM
SNB-78 CNS
  TGI: > 100 µM
KM20L2 colon
  TGI: > 100 µM
TK-10 renal
  TGI: > 100 µM
DLD-1 colon
  TGI: > 100 µM
SW-620 colon
  TGI: > 100 µM
NCI-H23 lung
  TGI: > 100 µM
DMS 114 small cell lung
  TGI: 61.1 µM
OVCAR-8 ovarian
  TGI: > 100 µM
A549 NSCLC
  TGI: > 100 µM
NCI-H226 lung
  TGI: > 100 µM
SF-295 CNS
  TGI: > 100 µM
UO-31 renal
  TGI: > 100 µM
ACHN renal
  TGI: > 100 µM
COLO 205 colon
  TGI: > 100 µM
U251 CNS
  TGI: > 100 µM
KM12 colon
  TGI: > 100 µM
HOP-92 NSCLC
  TGI: > 100 µM
SK-MEL-2 melanoma
  TGI: > 100 µM
M19-MEL melanoma
  TGI: > 100 µM
SNB-75 CNS
  TGI: > 100 µM
HCT-116 colon
  TGI: > 100 µM
CAKI-1 renal
  TGI: > 100 µM
786-0 renal
  TGI: > 100 µM
